Values joined by “and” are separate entries in the source; they are usually repeats but may differ in a detail not shown here. Equal entries are not always repeated. Active and inactive are the calls of the source.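 How the source made its calls: active means compounds giving half or more protection of infected cells from virus-caused growth loss, again on retest; inactive means the rest.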 Where a SMILES comes first, the peptide text is derived from it.
Tested on: CEM cells HIV-1 protection, formazan growth assay
Assay: NCI AIDS Antiviral Assay
Settings: for IC50: measured here: growth of uninfected CEM cells
How it was run: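 Human CEM cells, uninfected and HIV-1-infected, received five drug concentrations, and growth was read by soluble formazan assay. Compounds giving at least 50% protection were retested; reproducible 100% protection defined confirmed active.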

SMILES | EC50 | IC50 | outcome
CCN(CC)CCCC(C)Nc1c(Sc2cnc3cc(Cl)ccc3c2NC(C)CCCN(CC)CC)cnc2cc(Cl)ccc12 (stereo unspecified) | > 309 µM | 1.7 µM | 
Cc1ccc(-c2cc(-c3ccco3)c(C#N)c(=O)n2C2OC(OC(=O)c3ccccc3)C(OC(=O)c3ccccc3)C2OC(=O)c2ccccc2)cc1 (stereo unspecified) | > 10.2 µM | > 10.2 µM | 
COC(=O)Nc1nc2ccc(C(=O)C3CC3)cc2[nH]1 | > 200 µM | 0.219 µM | 
O=[N+]([O-])c1cccc[c]1[Sb](=[O])([OH])[OH] | > 200 µM | 7.41 µM | 
COc1ccc2nc3cc([N+](=O)[O-])ccc3c(NCCCN(CCO)CCO)c2c1 | > 200 µM | 2.51 µM | 
CC(=O)OCC1OC(n2c(=O)[nH]c(=O)c3sccc32)C(Br)C1OC(C)=O (stereo unspecified) | > 200 µM | > 200 µM | 
c1cc2c(s1)-c1sccc1C21OCCO1 | > 200 µM | 162 µM | 
O=c1[nH]c(NCc2cccnc2)nc2nc[nH]c12 | > 200 µM | > 200 µM | 
COc1cc(Nc2nc(NS(=O)(=O)c3cc(C)c(Cl)cc3S)n[nH]2)cc(OC)c1OC | 112 µM | 794 µM | 
CCCCCCCCCCCC(=O)OCCOCCOCCOCCOCCOCCOCCOCCOCCO | > 200 µM | 145 µM | 
O=C1/C(=C/c2ccc3c(c2)OCO3)Sc2scc(-c3ccc(O)c(O)c3)[n+]21 | > 200 µM | 1.1 µM | 
O=C1/C(=C/c2ccc3c(c2)OCO3)CCC/C1=C\c1ccc2c(c1)OCO2 | > 7.59 µM | > 7.59 µM | 
O=c1cc(CO)oc2c3c(cc(O)c12)OCC(COC1OC(CO)C(O)C(O)C1O)=CC3 (stereo unspecified) | > 550 µM | 288 µM | 
CCOC(=O)C(NC(=O)CC(C)C)(NC(C)C)C(F)(F)F (stereo unspecified) | > 200 µM | > 200 µM | 
Oc1ccc(-c2nc(-c3cccnc3)c(-c3ccc(Cl)cc3)[nH]2)cc1O | > 200 µM | 13.8 µM | 
COc1ccc(C2=Nn3c(nc4sc(-c5ccccc5)cc4c3=O)SC2)cc1 | > 200 µM | > 200 µM | 
COC1CC2C=C(C)/C=C/C=C/C(=O)NC(c3ccccc3)C/C=C/CCC(O)CC(=O)C2=C1O (stereo unspecified) | > 20.9 µM | 0.562 µM | 
Nc1ncnc2c(C3OC(CO)C(O)C3O)c[nH]c12 (stereo unspecified) | > 832 µM | 0.263 µM | 
CCOC(=O)C(Cc1ccc2c(c1)CCC2)(Cc1ccc2c(c1)CCC2)C(=O)OCC | > 200 µM | 69.2 µM | 
CN1CC[C@]2(C)c3c(O)cccc3CC3CCCC1C32C (stereo partly specified) |  |  | inactive
CC1OC2(CC(OCc3ccccc3)C1OCc1ccccc1)OCCO2 (stereo unspecified) | > 200 µM | 29.5 µM | 

SMILES | EC50 | IC50 | outcome
C=C=CC(C)(O)c1ccc(-c2ccccc2)cc1 (stereo unspecified) | > 191 µM | 45.7 µM | 
CC#CCC1CCC(OCC)=CC1=O (stereo unspecified) |  |  | inactive
COc1cccc(/C=N/N=C(/N)NO)c1 |  |  | inactive
O=C(N/N=C1\C(=O)N(c2nccs2)C(=O)C(=O)C1c1nc2ccccc2s1)c1ccccc1O (stereo unspecified) |  |  | inactive
[N-]=[N+]=C1C(=O)C2CC3CC1CC2C3 (stereo unspecified) | > 204 µM | > 204 µM | 
CSSC(SC)SC | > 200 µM | 33.1 µM | 
CN(C)c1ccc(C(=C2C=CC(=[N+](C)C)C=C2)c2c(O)c(S(=O)(=O)O)cc3cc(S(=O)(=O)O)ccc23)cc1 |  |  | inactive
Nc1ccc2cc(S(=O)(=O)O)cc(O)c2c1N=Nc1ccc(NC(=O)c2ccc(C(=O)Nc3ccc(N=Nc4c(N)ccc5cc(S(=O)(=O)O)cc(O)c45)c(S(=O)(=O)O)c3)cc2)cc1S(=O)(=O)O |  |  | active
COc1cc2c(cc1OC)C(CCc1ccc(Cl)cc1)N(C)CC2 (stereo unspecified) | > 200 µM | 91.2 µM | 
OCCCCCCCCCCCOc1ccc(C2OCC3(CO2)COC(c2ccc(OCCCCCCCCCCCO)cc2)OC3)cc1 (stereo unspecified) | > 50.1 µM | > 50.1 µM | 
O=C(Cc1ccccc1)NN1C(=O)/C(=C\c2ccccc2O)SC1=Nc1ccccc1 | > 219 µM | 174 µM | 
Cc1nc(-n2nc(-c3ccccc3)cc2-c2ccccc2)sc1C(=O)/C=C/c1ccc(Cl)cc1 | > 14.8 µM | > 14.8 µM | 
Cn1cnnc1Sc1c([N+](=O)[O-])nc(-c2ccc([N+](=O)[O-])cc2)n1C | > 100 µM | 2.95 µM | 
CNC(=O)OCCN1c2ccccc2Sc2ccccc21 | > 200 µM | 77.6 µM | 
OCC1CC(F)C(n2cnc3c(NC4CC4)ncnc32)O1 (stereo unspecified) | > 200 µM | > 200 µM | 
Cc1cc(O)cc2c1O[C@@]1(C)CCC3[C@@]4(C)CC[C@H](O)C(C)(C)C4CC[C@@]3(C)[C@H]1C2 (stereo partly specified) |  |  | inactive
COc1ccc(Br)c(CCCCC(=O)O)c1 |  |  | inactive
C/C=C/C[P+](c1ccccc1)(c1ccccc1)c1ccccc1 | > 200 µM | 1.48 µM and 1.32 µM | 
O=c1c(-c2ccc(O)cc2)coc2cc(OC3OC(CO)C(O)C(O)C3O)cc(O)c12 (stereo unspecified) | > 200 µM | > 200 µM | 
COC(=O)C(Cc1nc2ccccc2[nH]c1=O)/C(=N\NC(C)(C)C)C(=O)Nc1c(C)cc(Br)cc1C (stereo unspecified) | > 64.6 µM | 47.9 µM | 
Cc1ccc(NC(=O)/C(=N/NC(=O)CC#N)C2C(=O)N(c3ccccc3)N=C2N)cc1C (stereo unspecified) | > 219 µM | 37.2 µM | 

SMILES | EC50 | IC50 | outcome
CC1CC/C(=C\c2ccc(F)cc2)C2=C1C(c1ccc(F)cc1)N1C(=O)CSC1=N2 (stereo unspecified) | > 200 µM | 75.9 µM | 
Cc1cc(=O)cc2sc3c(C)cccc3nc1-2 | > 30.2 µM | > 30.2 µM | 
CC(=O)c1c(O)c2ccc(Cl)cc2[nH]c1=O | > 200 µM | 33.9 µM | 
Cc1ccc(S(=O)(=O)OC2CSSCC2OS(=O)(=O)c2ccc(C)cc2)cc1 (stereo unspecified) |  |  | inactive
CN(C)c1ccc(-c2c(C#N)c(-c3ccccc3)n(NS(=O)(=O)c3ccccc3)c(=O)c2C#N)cc1 | > 200 µM | 13.2 µM | 
Cc1cc2c(-c3ccccc3)cc(=O)[nH]c2cc1N | 186 µM | > 200 µM | 
COC(Cc1ccccc1)NC(C)=O (stereo unspecified) | > 200 µM | 186 µM | 
Cc1ccc(S(=O)(=O)C(C#N)c2nc3ccccc3nc2-n2ccnc2)cc1 (stereo unspecified) | > 200 µM | 155 µM | 
O=c1c(Cl)c(N2CCOCC2)cnn1-c1ccccc1 | > 234 µM | 209 µM | 
O=C1C(CN2CCOCC2)CCCC1CN1CCOCC1 (stereo unspecified) | > 4270 µM | 1.35 µM | inactive
Cc1cc(S(=O)(=O)Nc2nnc3ccc4ccccc4n23)c(S)cc1Cl | > 200 µM | 30.9 µM | 
CN/N=C(/Cc1occc(=O)c1O)C(=O)Nc1ccc(C)c(C)c1 | > 288 µM | > 288 µM | 
O=c1c(N(CCO)CCO)cn(C(c2ccccc2)(c2ccccc2)c2ccccc2)c(=O)n1C(c1ccccc1)(c1ccccc1)c1ccccc1 | > 200 µM | 3.02 µM | 
O=C1OC(c2ccc(Cl)c3ccccc23)c2ccccc21 (stereo unspecified) | > 17.8 µM | > 17.8 µM | 
OCC12C3C4C1C1C2C3C41CO (stereo unspecified) | > 1510 µM | > 1510 µM | 
O=C1C(N=Nc2ccc(Cl)cc2)Sc2nc3ccccc3n21 (stereo unspecified) |  |  | inactive
COc1ccc(CNc2cnc3ccc(N)cc3n2)cc1OC | > 115 µM | > 115 µM | 
COc1cc2c(c([N+](=O)[O-])c1)NC(=O)CCS2 |  |  | inactive
C/C(=N\NC(=O)c1ccncc1)c1cccc(F)c1 | > 195 µM | > 195 µM | 
CCOP(=O)(OCC)C(C(=O)OC)C(=O)C(=O)Nc1c(C)cc(Br)cc1C (stereo unspecified) | > 537 µM | > 537 µM | 
O=c1[nH]c2ccc(CC(=S)N3CCN(c4ccccc4)CC3)cc2o1 | > 200 µM | > 200 µM | 

SMILES | EC50 | IC50 | outcome
C(=C\c1ccccc1)/c1ccccc1 | > 200 µM | > 200 µM | 
CC(=O)Nc1ccc(C(=O)NN2C(=O)C(Cl)C2c2cc(Br)ccc2O)cc1 (stereo unspecified) | > 200 µM | 4.17 µM | 
COCCCN1CC(=O)N2Cc3ccccc3CN2C(=O)C1 |  | > 200 µM | inactive
O=C(c1ccccc1)c1ccc(C(=O)c2ccccc2)cc1 | > 5.01 µM | > 5.01 µM | 
C=CC[C@@H]1C(=O)[C@@]2(O[Si](C(C)C)(C(C)C)C(C)C)CC[C@@H]1C[C@H]2NC(=O)OCC(Cl)(Cl)Cl | > 200 µM | > 200 µM | 
CN(C)C12CCCCCCC1S(=O)(=O)C2 (stereo unspecified) | > 363 µM | 302 µM | 
N#C/C(=C\c1ccc(O)c(O)c1)C(=O)NCCCCCCCCNC(=O)/C(C#N)=C/c1ccc(O)c(O)c1 | > 200 µM | 13.8 µM | 
OCCOc1ccc(-c2cc(-c3ccccn3)nc(-c3ccccn3)c2)cc1 | > 3.72 µM | 0.646 µM | 
COc1cc(OCc2ccccc2)c(O)cc1-c1coc2cc(OCc3ccccc3)ccc2c1=O | > 200 µM | 4.27 µM | 
COc1cc2c(cc1OC)C1CCc3ccccc3CN1CC2 (stereo unspecified) | > 200 µM | 170 µM | 
C=CCC1(OCc2ccccc2)C(=O)C(=O)OC1C1COC(C)(C)O1 (stereo unspecified) | > 200 µM | > 200 µM | 
O=c1[nH]c(=O)n(C2CC(O)C(CO)O2)cc1C(OCC(F)(F)F)OCC(F)(F)F (stereo unspecified) | > 251 µM | 12 µM | 
O=C(CCc1cc(-c2ccccc2)nc(=S)[nH]1)N(Cc1ccccc1)Cc1ccccc1 |  |  | inactive
Cc1nnc(NS(=O)(=O)c2ccc(NC(=O)c3ccccc3SC(=O)CCCC[n+]3ccccc3)cc2)s1 | 51.3 µM | 55 µM | 
CC(=O)OCC1OC(Nc2ccc3nc(C)n(-c4cccc(C)c4)c(=O)c3c2)C(OC(C)=O)C(OC(C)=O)C1OC(C)=O (stereo unspecified) | > 126 µM | > 126 µM | 
C=C(C)[C@@]1(O)CCCC[C@@H]1CC(Sc1ccccc1)Sc1ccccc1 | > 200 µM | 19.1 µM | 
CC(C)(C)c1cc(Nc2c([N+](=O)[O-])cc([N+](=O)[O-])cc2[N+](=O)[O-])cc(C(C)(C)C)c1O | > 16.6 µM | > 16.6 µM | 
CC(C)CC(N)C(=O)NC(Cc1cnc[nH]1)C(=O)NC(CC(N)=O)C(=O)NC(C(=O)NC(CO)C(=O)NC(Cc1ccc(O)cc1)C(=O)NC(CO)C(=O)NC(C)C(=O)NC(CCCCN)C(=O)NC(CC(=O)O)C(=O)NC(CC(C)C)C(=O)O)C(C)O (stereo unspecified) (H-LHNTSYSAKDL-OH; configuration not given here) | > 50.1 µM | > 50.1 µM | 
Nn1c(=O)n2n(c1=O)C1CCC2C1 | > 200 µM | > 200 µM | 
CCC(Oc1ccc(OC)c2c1C(=O)CCC2)C(=O)O (stereo unspecified) |  |  | inactive
CCN1c2cc(Br)cc3[nH]c(=S)n(c23)CCC1C (stereo unspecified) | 3.72 µM | 112 µM | 
